Test results from PubChem BioAssay AID330 (DTP/NCI, 2004).
“And” between values parts separate entries of the source, which are not always exact repeats. Identical values can stand only once. Inconclusive results and toxic doses are left out. The calls were made as follows: active = survival T/C of 150% or more; inactive = T/C below 125% in these data.

Tested on: P388 leukemia ip, CD2F1 mice, survival T/C
Assay: NCI In Vivo Anticancer Drug Screen. Data for tumor model P388 Leukemia (intraperitoneal) in CD2F1 (CDF1) mice
Conditions: endpoint: median survival time, higher = longer survival
In short: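 Mice carrying the transplanted tumor received test compound or vehicle. Survival was recorded in each group, and the value is the treated-group measurement divided by that of the vehicle-treated control group.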

[1] = dose: 6.25 mg/kg/injection, schedule: Q01DX009 (ip), vehicle: Klucel (hydroxypropylcellulose) (HPC)
[2] = dose: 12.5 mg/kg/injection, schedule: Q01DX009 (ip), vehicle: Klucel (hydroxypropylcellulose) (HPC)
[3] = dose: 25.0 mg/kg/injection, schedule: Q01DX005 (ip), vehicle: saline with Tween-80
[4] = dose: 50.0 mg/kg/injection, schedule: Q01DX005 (ip), vehicle: saline with Tween-80
[5] = dose: 100.0 mg/kg/injection, schedule: Q01DX005 (ip), vehicle: saline with Tween-80
[6] = dose: 200.0 mg/kg/injection, schedule: Q01DX005 (ip), vehicle: saline with Tween-80
[7] = dose: 60.0 mg/kg/injection, schedule: Q01DX005 (ip), vehicle: saline with Tween-80
[8] = dose: 120.0 mg/kg/injection, schedule: Q01DX005 (ip), vehicle: saline with Tween-80
[9] = dose: 240.0 mg/kg/injection, schedule: Q01DX005 (ip), vehicle: saline with Tween-80
[10] = dose: 18.0 mg/kg/injection, schedule: Q01DX009 (ip), vehicle: Klucel (hydroxypropylcellulose) (HPC)
[11] = dose: 50.0 mg/kg/injection, schedule: Q01DX005 (ip), vehicle: Klucel (hydroxypropylcellulose) (HPC)
[12] = dose: 100.0 mg/kg/injection, schedule: Q01DX005 (ip), vehicle: Klucel (hydroxypropylcellulose) (HPC)
[13] = dose: 200.0 mg/kg/injection, schedule: Q01DX005 (ip), vehicle: Klucel (hydroxypropylcellulose) (HPC)
[14] = dose: 25.0 mg/kg/injection, schedule: Q01DX005 (ip), vehicle: Klucel (hydroxypropylcellulose) (HPC)

Measured: T/C

COc1cc2c(c(OC)c1OC)-c1ccc(NCc3ccccc3)c(=O)cc1[C@@H](NC(C)=O)CC2
inactive: dose: 0.78 mg/kg/injection, schedule: Q01DX009 (ip), vehicle: Klucel (hydroxypropylcellulose) (HPC) 103 % of control and 104 % of control and 105 % of control | dose: 1.56 mg/kg/injection, schedule: Q01DX009 (ip), vehicle: Klucel (hydroxypropylcellulose) (HPC) 98 % of control and 101 % of control and 104 % of control | dose: 3.12 mg/kg/injection, schedule: Q01DX009 (ip), vehicle: Klucel (hydroxypropylcellulose) (HPC) 105 % of control and 106 % of control and 117 % of control | [1] 117 % of control | [2] 98 % of control and 117 % of control

O=C(O)C(c1ccccc1)C1CCCCC1C1CCCCC1 (configuration not stated)
inactive: dose: 12.5 mg/kg/injection, schedule: Q01DX005 (ip), vehicle: saline with Tween-80 98 % of control | [3] 95 % of control | [4] 100 % of control and 93 % of control

C(NC=C(c1ccccc1)c1ccccc1)=C(c1ccccc1)c1ccccc1
inactive: dose: 100.0 mg/kg/injection, schedule: Q01DX001 (ip), vehicle: Klucel (hydroxypropylcellulose) (HPC) 103 % of control | dose: 200.0 mg/kg/injection, schedule: Q01DX001 (ip), vehicle: Klucel (hydroxypropylcellulose) (HPC) 107 % of control | dose: 400.0 mg/kg/injection, schedule: Q01DX001 (ip), vehicle: Klucel (hydroxypropylcellulose) (HPC) 103 % of control

C#CC(C)(C)Nc1c2ccccc2nc2ccccc12
inactive: [4] 96 % of control | [5] 103 % of control | [6] 102 % of control

COC(=O)C1CCCN1 (configuration not stated)
inactive: dose: 60.0 mg/kg/injection, schedule: Q01DX005 (ip), vehicle: saline 105 % of control | dose: 120.0 mg/kg/injection, schedule: Q01DX005 (ip), vehicle: saline 111 % of control | dose: 240.0 mg/kg/injection, schedule: Q01DX005 (ip), vehicle: saline 104 % of control

COCc1ccnn1-c1ccccc1C
inactive: [7] 97 % of control | [8] 97 % of control | [9] 104 % of control

CCOC(=O)Nc1ccc(OCC)cc1
inactive: dose: 100.0 mg/kg/injection, schedule: Q04DX003 (ip), vehicle: Klucel (hydroxypropylcellulose) (HPC) 107 % of control | dose: 200.0 mg/kg/injection, schedule: Q04DX003 (ip), vehicle: Klucel (hydroxypropylcellulose) (HPC) 100 % of control | dose: 400.0 mg/kg/injection, schedule: Q04DX003 (ip), vehicle: Klucel (hydroxypropylcellulose) (HPC) 92 % of control

Cc1ccc(NCCC2CCCN3CCCCC23)c2c(=O)c3ccccc3sc12 (configuration not stated)
inactive: dose: 12.5 mg/kg/injection, schedule: Q01DX005 (ip), vehicle: distilled water + Tween-80 100 % of control | dose: 25.0 mg/kg/injection, schedule: Q01DX005 (ip), vehicle: distilled water + Tween-80 91 % of control

O=C1N/C(=N/O)CC(NO)N1 (configuration not stated)
inactive: dose: 100.0 mg/kg/injection, schedule: Q04DX002 (ip), vehicle: Klucel (hydroxypropylcellulose) (HPC) 97 % of control | dose: 200.0 mg/kg/injection, schedule: Q04DX002 (ip), vehicle: Klucel (hydroxypropylcellulose) (HPC) 100 % of control | dose: 400.0 mg/kg/injection, schedule: Q04DX002 (ip), vehicle: Klucel (hydroxypropylcellulose) (HPC) 102 % of control

CCOC(=O)N1C=CC(=C2C(=C3C=CN(C(=O)OCC)C=C3)C(=C3C=CN(C(=O)OCC)C=C3)C2=C2C=CN(C(=O)OCC)C=C2)C=C1
inactive: [3] 100 % of control | [4] 101 % of control and 102 % of control and 117 % of control | [5] 100 % of control and 105 % of control and 109 % of control | [6] 99 % of control

c1ccc(-c2ccc[n+](CCC[n+]3cccc(-c4ccccn4)c3)c2)nc1
inactive: [4] 114 % of control | [5] 114 % of control

O=c1c2cc3c(cc2c2cccc4ccn1c42)OCO3
inactive: dose: 4.5 mg/kg/injection, schedule: Q01DX009 (ip), vehicle: Klucel (hydroxypropylcellulose) (HPC) 105 % of control | dose: 9.0 mg/kg/injection, schedule: Q01DX009 (ip), vehicle: Klucel (hydroxypropylcellulose) (HPC) 115 % of control | [10] 107 % of control | dose: 36.0 mg/kg/injection, schedule: Q01DX009 (ip), vehicle: Klucel (hydroxypropylcellulose) (HPC) 104 % of control

N=C(N)c1nc2ccccc2s1
inactive: dose: 12.5 mg/kg/injection, schedule: Q01DX009 (ip), vehicle: other 102 % of control | dose: 25.0 mg/kg/injection, schedule: Q01DX009 (ip), vehicle: other 104 % of control | dose: 50.0 mg/kg/injection, schedule: Q01DX009 (ip), vehicle: other 93 % of control

Nc1nc(C2CCCCC2)cc(=O)[nH]1
inactive: [11] 87 % of control | [12] 97 % of control | [13] 97 % of control

O=S(=O)(O)O.[Cu+2].[NH2-].[NH2-].[NH2-].[NH2-]
inactive: dose: 5.0 mg/kg/injection, schedule: Q04DX002 (ip), vehicle: saline 99 % of control | dose: 6.25 mg/kg/injection, schedule: Q01DX009 (ip), vehicle: saline 86 % of control | dose: 12.5 mg/kg/injection, schedule: Q01DX009 (ip), vehicle: saline 93 % of control

Cc1cccc(C)c1NC(=S)NC(=O)c1cccc(Cl)c1
inactive: [14] 94 % of control | [11] 92 % of control | [12] 97 % of control

O=C(Nc1ccc(Cl)cc1Cl)c1ccc2c(c1)C(=O)OC2=O
inactive: [7] 98 % of control | [8] 89 % of control | [9] 86 % of control

CCc1ccc(-n2c(C)nc3[nH]cc(C)c3c2=N)cc1
inactive: dose: 12.5 mg/kg/injection, schedule: Q01DX005 (ip), vehicle: Klucel (hydroxypropylcellulose) (HPC) 100 % of control | [14] 100 % of control | [11] 98 % of control and 100 % of control

COC(=O)c1cc(=O)nc(N/N=C/c2ccccc2O)s1
inactive: [11] 98 % of control | [12] 100 % of control | [13] 108 % of control

Cc1ccc(N)c(C(=O)Nc2ccc(Br)cc2)c1
inactive: [4] 101 % of control | [5] 101 % of control | [6] 95 % of control

CCc1cccc(CC)c1N1C(=O)C2=C(SCCCS2)C1=O
inactive: dose: 50.0 mg/kg/injection, schedule: Q01DX009 (ip), vehicle: saline 98 % of control | dose: 100.0 mg/kg/injection, schedule: Q01DX009 (ip), vehicle: saline 102 % of control | dose: 200.0 mg/kg/injection, schedule: Q01DX009 (ip), vehicle: saline 107 % of control

CCCCC1C(=S)N(c2ccccc2)N(c2ccccc2)C1=S
inactive: [11] 101 % of control | [12] 94 % of control | [13] 97 % of control

COc1cccc(NCCCSC)c1
inactive: dose: 50.0 mg/kg/injection, schedule: Q01DX005 (ip), vehicle: saline 102 % of control | dose: 100.0 mg/kg/injection, schedule: Q01DX005 (ip), vehicle: saline 116 % of control

O=C(CCCCCCCCc1cccc2c1OCO2)c1c(O)cccc1O
inactive: dose: 2.0 mg/kg/injection, schedule: Q01DX009 (ip), vehicle: Klucel (hydroxypropylcellulose) (HPC) 103 % of control | dose: 4.0 mg/kg/injection, schedule: Q01DX009 (ip), vehicle: Klucel (hydroxypropylcellulose) (HPC) 95 % of control | dose: 8.0 mg/kg/injection, schedule: Q01DX009 (ip), vehicle: Klucel (hydroxypropylcellulose) (HPC) 109 % of control | dose: 16.0 mg/kg/injection, schedule: Q01DX009 (ip), vehicle: Klucel (hydroxypropylcellulose) (HPC) 105 % of control

C=CC(C)(C)n1cc(C2=C(O)C(=O)C(c3cn(C(C)(C)C=C)c4ccccc34)=C(O)C2=O)c2ccccc21
inactive: dose: 2.5 mg/kg/injection, schedule: Q01DX009 (ip), vehicle: carboxymethylcellulose (CMC) 101 % of control | dose: 5.0 mg/kg/injection, schedule: Q01DX009 (ip), vehicle: carboxymethylcellulose (CMC) 103 % of control and 88 % of control | [1] 99 % of control | dose: 10.0 mg/kg/injection, schedule: Q01DX009 (ip), vehicle: carboxymethylcellulose (CMC) 108 % of control and 93 % of control | [2] 100 % of control | [10] 95 % of control | dose: 20.0 mg/kg/injection, schedule: Q01DX009 (ip), vehicle: carboxymethylcellulose (CMC) 120 % of control and 90 % of control | dose: 25.0 mg/kg/injection, schedule: Q01DX009 (ip), vehicle: Klucel (hydroxypropylcellulose) (HPC) 99 % of control | dose: 26.0 mg/kg/injection, schedule: Q01DX009 (ip), vehicle: Klucel (hydroxypropylcellulose) (HPC) 104 % of control | dose: 40.0 mg/kg/injection, schedule: Q01DX009 (ip), vehicle: Klucel (hydroxypropylcellulose) (HPC) 90 % of control | dose: 40.0 mg/kg/injection, schedule: Q01DX009 (ip), vehicle: carboxymethylcellulose (CMC) 114 % of control | dose: 50.0 mg/kg/injection, schedule: Q01DX009 (ip), vehicle: Klucel (hydroxypropylcellulose) (HPC) 100 % of control | dose: 100.0 mg/kg/injection, schedule: Q01DX009 (ip), vehicle: Klucel (hydroxypropylcellulose) (HPC) 113 % of control
